In patent US20210290514A1, “An Antimicrobial Combination Composition Comprising Glycerol Derivatives and Bicyclic Compounds” (CLARIANT INTERNATIONAL LIMITED, priority 2018, published 2021):

Legend:
Experiment in all cases: in vitro growth inhibition of a microbial strain by compositions formulated to pH 5.5
Assay type in all cases: cell-based
Staphylococcus aureus = tested on: Staphylococcus aureus
Method: (§1) Several antimicrobial combinations compositions were formulated to pH of 5.5. These compositions were tested for their ability to inhibit in vitro the growth of a microbial strain. “Green” indicates a substantial inhibition, “Yellow” indicates an intermediate inhibition, and “Red” indicates little to no inhibition.

Candida albicans = tested on: Candida albicans
Method: as §1

Pseudomonas aeruginosa = tested on: Pseudomonas aeruginosa
Method: as §1

Echerichia coli = tested on: Echerichia coli
Method: as §1

[1] = tested on: Aspergillus brasilliensis
Method: as §1

Row | SMILES | antimicrobial activity, Staphylococcus aureus (Staphylococcus aureus; 0.5%) | antimicrobial activity, Staphylococcus aureus (Staphylococcus aureus; 0.8%) | antimicrobial activity, Staphylococcus aureus (Staphylococcus aureus; 1.0%) | antimicrobial activity, Staphylococcus aureus (Staphylococcus aureus; 1.5%) | antimicrobial activity, Candida albicans (Candida albicans; 0.5%) | antimicrobial activity, Candida albicans (Candida albicans; 0.8%) | antimicrobial activity, Candida albicans (Candida albicans; 1.0%) | antimicrobial activity, Candida albicans (Candida albicans; 1.5%) | antimicrobial activity, Pseudomonas aeruginosa (Pseudomonas aeruginosa; 0.5%) | antimicrobial activity, Pseudomonas aeruginosa (Pseudomonas aeruginosa; 0.8%) | antimicrobial activity, Pseudomonas aeruginosa (Pseudomonas aeruginosa; 1.0%) | antimicrobial activity, Pseudomonas aeruginosa (Pseudomonas aeruginosa; 1.5%) | antimicrobial activity, Echerichia coli (Echerichia coli; 0.5%) | antimicrobial activity, Echerichia coli (Echerichia coli; 0.8%) | antimicrobial activity, Echerichia coli (Echerichia coli; 1.0%) | antimicrobial activity, Echerichia coli (Echerichia coli; 1.5%) | antimicrobial activity, Aspergillus brasilliensis ([1]; 0.5%) | antimicrobial activity, Aspergillus brasilliensis ([1]; 0.8%) | antimicrobial activity, Aspergillus brasilliensis ([1]; 1.0%) | antimicrobial activity, Aspergillus brasilliensis ([1]; 1.5%)
1 | CCCCCCCCOCC(O)CO (stereo not shown) [Octylglycerin, 3-[(n-octyl)oxy]-1,2-propanediol] | Green | Green | Green | Green | Green | Green | Green | Green | Green | Green | Green | Green | Green | Green | Green | Green | Yellow | Green | Yellow | Yellow
2 | CCCCC(CC)COCC(O)CO (stereo not shown) [Velsan ethylhexylglycerin, 3-[(2-ethylhexyl)oxy]-1,2-propanediol] | Green | Green | Green | Green | Green | Green | Green | Green | Green | Green | Green | Green | Green | Green | Green | Green | Red | Red | Red | Red
